In brackets after ≈: the same amount, converted by molar mass.
Columns and labels:
Assay type in all cases: cell-based
HIV-1 = test: Breakthrough of mutant HIV-1 strains in CEM cell cultures, single drugs and double/triple combinations
Description: The culture medium consisted of RPMI 1640 containing 10% fetal bovine serum, 2 mM L-glutamine, and 0.075% NaHCO3. The multiplicity of the initial infection was ~1000 times the CCID50 (50% cell culture infective dose). Passages were performed every 3 to 4 days by adding 0.5 to 1.0 ml of the infected culture supernatant to 5 ml of a suspension containing 4×10^5 uninfected CEM cells per ml. Syncytium formation was used as a parameter of virus breakthrough in the cell cultures. In the drug combination experiments, the compounds were combined at the same initial concentrations as used for the two lowest concentrations in the single-drug experiments.
Compound IV, BHAP and TSAO-m^3 T were added to HIV-1-infected CEM cell cultures at 0.04, 0.10 and 0.25 ug/ml (Compound IV and BHAP) or 1.0, 2.5 and 5.0 μg/ml (TSAO-m^3 T). In addition, various double- and triple-drug combinations of Compound IV, BHAP and TSAO-m^3 T were performed, combining these inhibitors at their lowest (0.04 μg/ml) or intermediary (0.1 μg/ml) concentration as used in the single-drug experiments.

HIV-1(IIIB) (WT) = test: microbe, parasite or virus in culture
Description: (§1) CEM cells were suspended at 250,000 cells per ml of culture medium and infected with wild-type HIV-I(IIIB) or mutant HIV-1 strains at 100 50% cell culture infective doses per ml. Then 100 μl of the infected cell suspensions was added to 200-μl microtiter plate wells containing 100 μl of an appropriate dilution of the test compounds. After 4 days incubation at 37° C., the cell cultures were examined for syncytium formation.

HIV-1/I(0.1) 103-Asn = test: Sensitivity of mutant HIV-1 strain in CEM cell cultures; details: Table 5
Description: as §1

HIV-1/B 101Glu = test: as above; details: Table 5
Description: as §1

HIV-1/IV(0.1) 103-Thr = test: as above; details: Table 5
Description: as §1

HIV-1/V(0.5) 103-Asn = test: as above; details: Table 5
Description: as §1

HIV-1/III(0.1) 103-Asn = test: as above; details: Table 5
Description: as §1

HIV-1/II(0.1) 100-Ile = test: as above; details: Table 5
Description: as §1

[1] = system: HIV-1/V(0.1) 101-Ile + 141-Glu; test: as above; details: Table 5
Description: as §1

CC(C)Nc1cccnc1N1CCN(C(=O)c2cc3cc(NS(C)(=O)=O)ccc3[nH]2)CC1 [BHAP U90152]
HIV-1-induced syncytium formation in CEM cells (HIV-1; single drug 0.04 μg/ml, day 4 post infection): 0 percentage of control | HIV-1-induced syncytium formation in CEM cells (HIV-1; single drug 0.04 μg/ml, day 7 post infection): 12.5 percentage of control | HIV-1-induced syncytium formation in CEM cells (HIV-1; single drug 0.04 μg/ml, day 11 post infection): 75 percentage of control | HIV-1-induced syncytium formation in CEM cells (HIV-1; single drug 0.04 μg/ml, day 14 post infection): 100 percentage of control | HIV-1-induced syncytium formation in CEM cells (HIV-1; single drug 0.04 μg/ml, day 18 post infection): 100 percentage of control | HIV-1-induced syncytium formation in CEM cells (HIV-1; single drug 0.04 μg/ml, day 21 post infection): 100 percentage of control | HIV-1-induced syncytium formation in CEM cells (HIV-1; single drug 0.04 μg/ml, day 25 post infection): 100 percentage of control | HIV-1-induced syncytium formation in CEM cells (HIV-1; single drug 0.04 μg/ml, day 28 post infection): 100 percentage of control | HIV-1-induced syncytium formation in CEM cells (HIV-1; single drug 0.04 μg/ml, day 32 post infection): 100 percentage of control | HIV-1-induced syncytium formation in CEM cells (HIV-1; single drug 0.04 μg/ml, day 35 post infection): 100 percentage of control | HIV-1-induced syncytium formation in CEM cells (HIV-1; single drug 0.04 μg/ml, day 39 post infection): 100 percentage of control | HIV-1-induced syncytium formation in CEM cells (HIV-1; single drug 0.04 μg/ml, day 42 post infection): 100 percentage of control | HIV-1-induced syncytium formation in CEM cells (HIV-1; single drug 0.04 μg/ml, day 46 post infection): 100 percentage of control | HIV-1-induced syncytium formation in CEM cells (HIV-1; single drug 0.04 μg/ml, day 49 post infection): 100 percentage of control | HIV-1-induced syncytium formation in CEM cells (HIV-1; single drug 0.04 μg/ml, day 53 post infection): 100 percentage of control | HIV-1-induced syncytium formation in CEM cells (HIV-1; single drug 0.04 μg/ml, day 56 post infection): 100 percentage of control | HIV-1-induced syncytium formation in CEM cells (HIV-1; single drug 0.04 μg/ml, day 60 post infection): 100 percentage of control | HIV-1-induced syncytium formation in CEM cells (HIV-1; single drug 0.04 μg/ml, day 64 post infection): 100 percentage of control | HIV-1-induced syncytium formation in CEM cells (HIV-1; single drug 0.04 μg/ml, day 67 post infection): 100 percentage of control | HIV-1-induced syncytium formation in CEM cells (HIV-1; single drug 0.04 μg/ml, day 71 post infection): 100 percentage of control | HIV-1-induced syncytium formation in CEM cells (HIV-1; single drug 0.04 μg/ml, day 74 post infection): 100 percentage of control | HIV-1-induced syncytium formation in CEM cells (HIV-1; single drug 0.04 μg/ml, day 77 post infection): 100 percentage of control | HIV-1-induced syncytium formation in CEM cells (HIV-1; single drug 0.10 μg/ml, day 4 post infection): 0 percentage of control | HIV-1-induced syncytium formation in CEM cells (HIV-1; single drug 0.10 μg/ml, day 7 post infection): 0 percentage of control | HIV-1-induced syncytium formation in CEM cells (HIV-1; single drug 0.10 μg/ml, day 11 post infection): 0 percentage of control | HIV-1-induced syncytium formation in CEM cells (HIV-1; single drug 0.10 μg/ml, day 14 post infection): 12.5 percentage of control | HIV-1-induced syncytium formation in CEM cells (HIV-1; single drug 0.10 μg/ml, day 18 post infection): 75 percentage of control | HIV-1-induced syncytium formation in CEM cells (HIV-1; single drug 0.10 μg/ml, day 21 post infection): 100 percentage of control | HIV-1-induced syncytium formation in CEM cells (HIV-1; single drug 0.10 μg/ml, day 25 post infection): 100 percentage of control | HIV-1-induced syncytium formation in CEM cells (HIV-1; single drug 0.10 μg/ml, day 28 post infection): 100 percentage of control | HIV-1-induced syncytium formation in CEM cells (HIV-1; single drug 0.10 μg/ml, day 32 post infection): 100 percentage of control | HIV-1-induced syncytium formation in CEM cells (HIV-1; single drug 0.10 μg/ml, day 35 post infection): 100 percentage of control | HIV-1-induced syncytium formation in CEM cells (HIV-1; single drug 0.10 μg/ml, day 39 post infection): 100 percentage of control | HIV-1-induced syncytium formation in CEM cells (HIV-1; single drug 0.10 μg/ml, day 42 post infection): 100 percentage of control | HIV-1-induced syncytium formation in CEM cells (HIV-1; single drug 0.10 μg/ml, day 46 post infection): 100 percentage of control | HIV-1-induced syncytium formation in CEM cells (HIV-1; single drug 0.10 μg/ml, day 49 post infection): 100 percentage of control | HIV-1-induced syncytium formation in CEM cells (HIV-1; single drug 0.10 μg/ml, day 53 post infection): 100 percentage of control | HIV-1-induced syncytium formation in CEM cells (HIV-1; single drug 0.10 μg/ml, day 56 post infection): 100 percentage of control | HIV-1-induced syncytium formation in CEM cells (HIV-1; single drug 0.10 μg/ml, day 60 post infection): 100 percentage of control | HIV-1-induced syncytium formation in CEM cells (HIV-1; single drug 0.10 μg/ml, day 64 post infection): 100 percentage of control | HIV-1-induced syncytium formation in CEM cells (HIV-1; single drug 0.10 μg/ml, day 67 post infection): 100 percentage of control | HIV-1-induced syncytium formation in CEM cells (HIV-1; single drug 0.10 μg/ml, day 71 post infection): 100 percentage of control | HIV-1-induced syncytium formation in CEM cells (HIV-1; single drug 0.10 μg/ml, day 74 post infection): 100 percentage of control | HIV-1-induced syncytium formation in CEM cells (HIV-1; single drug 0.10 μg/ml, day 77 post infection): 100 percentage of control | HIV-1-induced syncytium formation in CEM cells (HIV-1; single drug 0.25 μg/ml, day 4 post infection): 0 percentage of control | HIV-1-induced syncytium formation in CEM cells (HIV-1; single drug 0.25 μg/ml, day 7 post infection): 0 percentage of control | HIV-1-induced syncytium formation in CEM cells (HIV-1; single drug 0.25 μg/ml, day 11 post infection): 0 percentage of control | HIV-1-induced syncytium formation in CEM cells (HIV-1; single drug 0.25 μg/ml, day 14 post infection): 6.25 percentage of control | HIV-1-induced syncytium formation in CEM cells (HIV-1; single drug 0.25 μg/ml, day 18 post infection): 50 percentage of control | HIV-1-induced syncytium formation in CEM cells (HIV-1; single drug 0.25 μg/ml, day 21 post infection): 100 percentage of control | HIV-1-induced syncytium formation in CEM cells (HIV-1; single drug 0.25 μg/ml, day 25 post infection): 100 percentage of control | HIV-1-induced syncytium formation in CEM cells (HIV-1; single drug 0.25 μg/ml, day 28 post infection): 100 percentage of control | HIV-1-induced syncytium formation in CEM cells (HIV-1; single drug 0.25 μg/ml, day 32 post infection): 100 percentage of control | HIV-1-induced syncytium formation in CEM cells (HIV-1; single drug 0.25 μg/ml, day 35 post infection): 100 percentage of control | HIV-1-induced syncytium formation in CEM cells (HIV-1; single drug 0.25 μg/ml, day 39 post infection): 100 percentage of control | HIV-1-induced syncytium formation in CEM cells (HIV-1; single drug 0.25 μg/ml, day 42 post infection): 100 percentage of control | HIV-1-induced syncytium formation in CEM cells (HIV-1; single drug 0.25 μg/ml, day 46 post infection): 100 percentage of control | HIV-1-induced syncytium formation in CEM cells (HIV-1; single drug 0.25 μg/ml, day 49 post infection): 100 percentage of control | HIV-1-induced syncytium formation in CEM cells (HIV-1; single drug 0.25 μg/ml, day 53 post infection): 100 percentage of control | HIV-1-induced syncytium formation in CEM cells (HIV-1; single drug 0.25 μg/ml, day 56 post infection): 100 percentage of control | HIV-1-induced syncytium formation in CEM cells (HIV-1; single drug 0.25 μg/ml, day 60 post infection): 100 percentage of control | HIV-1-induced syncytium formation in CEM cells (HIV-1; single drug 0.25 μg/ml, day 64 post infection): 100 percentage of control | HIV-1-induced syncytium formation in CEM cells (HIV-1; single drug 0.25 μg/ml, day 67 post infection): 100 percentage of control | HIV-1-induced syncytium formation in CEM cells (HIV-1; single drug 0.25 μg/ml, day 71 post infection): 100 percentage of control | HIV-1-induced syncytium formation in CEM cells (HIV-1; single drug 0.25 μg/ml, day 74 post infection): 100 percentage of control | HIV-1-induced syncytium formation in CEM cells (HIV-1; single drug 0.25 μg/ml, day 77 post infection): 100 percentage of control | virus breakthrough delayed till day (HIV-1; single drug, higher concentrations): 14 days | EC50 (HIV-1(IIIB) (WT)): 0.010 µg/mL (≈ 0.0219 µM) | EC50 (HIV-1/I(0.1) 103-Asn): 0.25 µg/mL (≈ 0.548 µM) | EC50 (HIV-1/B 101Glu): 1.0 µg/mL (≈ 2.19 µM) | EC50 (HIV-1/IV(0.1) 103-Thr): 0.47 µg/mL (≈ 1.03 µM) | EC50 (HIV-1/V(0.5) 103-Asn): 0.50 µg/mL (≈ 1.1 µM) | EC50 (HIV-1/III(0.1) 103-Asn): 0.05 µg/mL (≈ 0.11 µM) | EC50 (HIV-1/II(0.1) 100-Ile): 0.67 µg/mL (≈ 1.47 µM) | EC50 [1]: 0.10 µg/mL (≈ 0.219 µM)

Source: US5968910A, “Compositions containing two or three inhibitors of different HIV reverse transcriptases” (priority 1994, dated 1999)
